According to ChEMBL document CHEMBL5126604, “Design, Synthesis, and Biological Evaluation of Pyrrole-2-carboxamide Derivatives as Mycobacterial Membrane Protein Large 3 Inhibitors for Treating Drug-Resistant Tuberculosis” (J Med Chem, 2022):
Values after ≈ are worked out from the molar mass of the structure shown.

Tests used:
[1] = tested on: Mycobacterium tuberculosis; test: microbe, parasite or virus in culture; conditions: H37Rv, 168 h
Description: Antimycobacterial activity against Mycobacterium tuberculosis H37Rv assessed as inhibition of bacterial growth measured after 7 days by microplate alamar blue assay

[2] = Metabolic stability in mouse liver microsomes at 0.5 uM measured after 15 to 120 mins in presence of NADPH by LC-MS/MS analysis; assay type: ADME, Microsome; conditions: time 15-120 min
[3] = Metabolic stability in mouse liver microsomes at 0.5 uM measured after 15 to 120 mins in absence of NADPH by LC-MS/MS analysis; assay type: ADME, Microsome; conditions: time 15-120 min
in vitro = conditions: monkey, Vero cells
Description: Selectivity index, ratio of IC50 for African green monkey vero cells to MIC for Mycobacterium tuberculosis H37Rv

Vero = test: Cytotoxicity against African green monkey vero cells assessed as reduction in cell viability measured after 48 hrs by MTT assay; assay type: functional, cell-based; conditions: Chlorocebus sabaeus
[4] = tested on: Mycobacterium tuberculosis; assay type: functional, H37Rv; conditions: dose 100 mg/kg; route po; time 3-30 day
[5] = tested on: Mycolicibacterium smegmatis; test: Antimycobacterial activity against Mycobacterium smegmatis harboring MsmgdeltammpL3/pMVGHI-mmpL3tb mutant assessed as reduction in bacterial growth measured after 16 hrs […]; assay type: functional
[6] = tested on: Mycolicibacterium smegmatis; test: Antimycobacterial activity against Mycobacterium smegmatis harboring MsmgdeltammpL3/pMVGHI-mmpL3tb G253E mutant assessed as reduction in bacterial growth measured after 16 hrs […]; assay type: functional
[7] = tested on: Mycobacterium tuberculosis; test: Antimycobacterial activity against Mycobacterium tuberculosis mc2 6206 assessed as decrease in trehalose dimycolate measured after 16 hrs using [14C]acetate by TLC analysis; assay type: functional, organism-based; conditions: DDE = dose-dependent effect
[8] = tested on: Mycobacterium tuberculosis; test: Antimycobacterial activity against Mycobacterium tuberculosis mc2 6206 assessed as decrease in mycolic acid transfer to cell wall arabinogalactan measured after 16 hrs using [14C]acetate by TLC analysis; assay type: functional, organism-based; conditions: dose 0.0625-1 µg/ml, DDE = dose-dependent effect
[9] = target: Voltage-gated inwardly rectifying potassium channel KCNH2 (Homo sapiens, UniProt Q12809)
Description: Inhibition of hERG potassium channel in HEK293 cells at 0.3 to 30 uM by whole-cell patch clamp assay

[10] = tested on: Mycobacterium tuberculosis; test: microbe, parasite or virus in culture; conditions: H37Rv mc2 6206, 16 h
Description: Antimycobacterial activity against Mycobacterium tuberculosis H37Rv mc2 6206 assessed as reduction in bacterial growth measured after 16 hrs by TLC analysis

Voltage-gated inwardly rectifying potassium channel KCNH2, sequence (Q12809 whole entry): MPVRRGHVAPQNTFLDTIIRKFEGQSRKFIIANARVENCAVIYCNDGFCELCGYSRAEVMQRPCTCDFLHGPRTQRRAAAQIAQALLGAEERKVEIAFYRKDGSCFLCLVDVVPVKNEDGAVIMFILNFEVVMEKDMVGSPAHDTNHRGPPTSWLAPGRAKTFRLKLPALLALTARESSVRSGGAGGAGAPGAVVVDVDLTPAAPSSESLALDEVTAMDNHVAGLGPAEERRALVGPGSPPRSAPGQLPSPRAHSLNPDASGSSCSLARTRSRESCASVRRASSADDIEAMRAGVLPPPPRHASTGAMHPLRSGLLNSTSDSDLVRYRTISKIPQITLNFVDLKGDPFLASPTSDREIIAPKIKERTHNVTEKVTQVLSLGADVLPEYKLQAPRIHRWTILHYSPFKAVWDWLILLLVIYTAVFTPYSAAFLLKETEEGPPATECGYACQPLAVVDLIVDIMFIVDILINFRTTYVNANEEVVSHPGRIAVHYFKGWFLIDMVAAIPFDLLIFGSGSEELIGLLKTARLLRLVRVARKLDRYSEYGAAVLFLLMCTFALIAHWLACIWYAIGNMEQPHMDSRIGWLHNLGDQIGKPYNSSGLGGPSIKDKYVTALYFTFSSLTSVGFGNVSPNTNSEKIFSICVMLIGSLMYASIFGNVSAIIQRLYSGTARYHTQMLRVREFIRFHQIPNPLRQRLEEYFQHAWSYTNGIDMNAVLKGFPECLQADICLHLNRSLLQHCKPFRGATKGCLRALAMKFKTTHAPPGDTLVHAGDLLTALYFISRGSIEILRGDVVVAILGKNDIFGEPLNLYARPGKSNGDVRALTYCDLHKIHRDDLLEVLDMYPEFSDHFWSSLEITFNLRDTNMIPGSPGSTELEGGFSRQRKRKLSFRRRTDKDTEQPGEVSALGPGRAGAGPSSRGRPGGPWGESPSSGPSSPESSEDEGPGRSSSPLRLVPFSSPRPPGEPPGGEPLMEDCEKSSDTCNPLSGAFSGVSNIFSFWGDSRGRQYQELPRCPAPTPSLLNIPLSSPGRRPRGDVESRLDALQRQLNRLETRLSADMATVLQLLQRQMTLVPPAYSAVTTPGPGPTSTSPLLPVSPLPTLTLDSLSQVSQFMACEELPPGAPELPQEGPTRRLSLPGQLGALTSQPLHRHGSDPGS

SMILES | MIC90 [1] | IC50 (Vero) | further results
CCCNC(=O)c1cc(-c2ccc(Cl)cc2Cl)c[nH]1 | 12.5 µg/mL (≈ 42.1 µM) |  | 
COc1ncccc1-c1c[nH]c(C(=O)NC2C3CC4CC(C3)CC2C4)c1 (centres undefined) | < 0.016 µg/mL |  | Stability [2]: 0.63%; Stability [3]: Stable; selectivity ratio (in vitro): 737
O=C(NC1CCCCCCC1)c1cc(-c2ccc(Cl)cc2Cl)c[nH]1 | 0.23 µg/mL (≈ 0.63 µM) |  | 
O=C(NC1C2CC3CC(C2)CC1C3)c1cc(-c2ccccn2)c[nH]1 (centres undefined) | 0.12 µg/mL (≈ 0.373 µM) | 47.3 µg/mL (≈ 147 µM) | selectivity ratio (in vitro): 394
COc1cc(F)ccc1-c1c[nH]c(C(=O)NC23CC4CC(CC(C4)C2)C3)c1 | < 0.016 µg/mL |  | Stability [2]: 23.3%; Stability [3]: Stable
O=C(NC1CCCCCCC1)c1cc(-c2ccncc2F)c[nH]1 | 0.06 µg/mL (≈ 0.19 µM) |  | 
O=C(NC1C2CC3CC(C2)CC1C3)c1cc(-c2ccc(Cl)nc2)c[nH]1 (centres undefined) | 0.24 µg/mL (≈ 0.674 µM) | > 64 µg/mL | 
O=C(NC12CC3CC(CC(C3)C1)C2)c1cc(-c2ccc(Cl)cc2)c[nH]1 | 0.155 µg/mL (≈ 0.437 µM) |  | 
COc1ccc(-c2c[nH]c(C(=O)NC3C4CC5CC(C4)CC3C5)c2)c(OC)c1 (centres undefined) | 0.24 µg/mL (≈ 0.631 µM) | > 64 µg/mL | 
O=C(NC12CC3CC(CC(C3)C1)C2)c1cc(-c2ccncc2F)c[nH]1 | 0.06 µg/mL (≈ 0.177 µM) |  | 
Nc1ncc(F)cc1-c1c[nH]c(C(=O)NC2C3CC4CC(C3)CC2C4)c1 (centres undefined) | 0.44 µg/mL (≈ 1.24 µM) | 33.9 µg/mL (≈ 95.6 µM) | selectivity ratio (in vitro): 77
O=C(NC12CC3CC(CC(C3)C1)C2)c1cc(-c2ccc(F)cc2F)c[nH]1 | < 0.016 µg/mL |  | Stability [2]: 57.4%; Stability [3]: Stable; Activity [4]: 1.5 log10CFU; MIC90 [5]: 0.25 µg/mL (≈ 0.701 µM); MIC=>90 [6]: 2 µg/mL (≈ 5.61 µM); inhibition [7]: Dde; inhibition [8]: Dde; IC50 [9]: > 30 µM; MIC90 [10]: 0.0625 µg/mL (≈ 0.175 µM)
COc1cc(F)ccc1-c1c[nH]c(C(=O)NC2CCCCCCC2)c1 | < 0.016 µg/mL |  | Stability [2]: 9.03%; Stability [3]: Stable
Cc1nc(F)ccc1-c1c[nH]c(C(=O)NC2C3CC4CC(C3)CC2C4)c1 (centres undefined) | 0.062 µg/mL (≈ 0.175 µM) | 27.7 µg/mL (≈ 78.4 µM) | Stability [2]: 32.3%; Stability [3]: Stable; selectivity ratio (in vitro): 447
O=C(NC1C2CC3CC(C2)CC1C3)c1cc(-c2ccc(F)nc2F)c[nH]1 (centres undefined) | < 0.016 µg/mL |  | Stability [2]: 43.3%; Stability [3]: Stable; Activity [4]: 2 log10CFU; MIC90 [5]: 0.5 µg/mL (≈ 1.4 µM); MIC=>90 [6]: 4 µg/mL (≈ 11.2 µM); inhibition [7]: Dde; inhibition [8]: Dde; IC50 [9]: > 30 µM; MIC90 [10]: 0.125 µg/mL (≈ 0.35 µM)
O=C(NC1C2CC3CC(C2)CC1C3)c1cc(-c2ccc(Cl)nc2Cl)c[nH]1 (centres undefined) | 0.24 µg/mL (≈ 0.615 µM) | > 64 µg/mL | 

SMILES | MIC90 [1] | IC50 (Vero) | further results
O=C(NC1C2CC3CC(C2)CC1C3)c1cc(-c2ccc(O)cc2F)c[nH]1 (centres undefined) | > 32 µg/mL |  | 
O=C(NC1C2CC3CC(C2)CC1C3)c1cc(-c2ccc(F)cc2)c[nH]1 (centres undefined) | < 0.016 µg/mL | 12.6 µg/mL (≈ 37.2 µM) | Stability [2]: 70.4%; Stability [3]: Stable; selectivity ratio (in vitro): 788
O=C(Nc1ccccc1)c1cc(-c2ccc(Cl)cc2Cl)c[nH]1 | > 32 µg/mL |  | 
O=C(NC1C2CC3CC(C2)CC1C3)c1cc(-c2ccncc2F)c[nH]1 (centres undefined) | 0.11 µg/mL (≈ 0.324 µM) |  | selectivity ratio (in vitro): 415
O=C(NC1CCC(F)(F)CC1)c1cc(-c2ccc(Cl)cc2Cl)c[nH]1 | 6.1 µg/mL (≈ 16.3 µM) |  | 
CN(C(=O)c1cc(-c2ccc(Cl)cc2Cl)cn1C)C1C2CC3CC(C2)CC1C3 (centres undefined) | > 32 µg/mL |  | 
COc1ncc(-c2c[nH]c(C(=O)NC3C4CC5CC(C4)CC3C5)c2)cn1 (centres undefined) | 3.8 µg/mL (≈ 10.8 µM) |  | 
CN1CCN(C(=O)c2cc(-c3ccc(Cl)cc3Cl)c[nH]2)CC1 | 27.4 µg/mL (≈ 81 µM) |  | 
CC1(C)CCC(NC(=O)c2cc3c(Cl)cc(Cl)cc3[nH]2)CC1 | 0.015 µg/mL (≈ 0.0442 µM) | 10.5 µg/mL (≈ 30.9 µM) | selectivity ratio (in vitro): 700
O=C(NC12CC3CC(CC(C3)C1)C2)c1cc(-c2ccc(Cl)cc2Cl)c[nH]1 | 0.058 µg/mL (≈ 0.149 µM) |  | 
O=C(NC1C2CC3CC(C2)CC1C3)c1cc(-c2cccnc2)c[nH]1 (centres undefined) | 0.04 µg/mL (≈ 0.124 µM) | 39.5 µg/mL (≈ 123 µM) | selectivity ratio (in vitro): 988
O=C(c1cc(-c2ccc(Cl)cc2Cl)c[nH]1)N1CCCC1 | 9.8 µg/mL (≈ 31.7 µM) |  | 
COc1ncc(F)cc1-c1c[nH]c(C(=O)NC2C3CC4CC(C3)CC2C4)c1 (centres undefined) | 0.016 µg/mL (≈ 0.0433 µM) | > 64 µg/mL | Stability [2]: 1.97%; Stability [3]: Stable
O=C(c1cc(-c2ccc(Cl)cc2Cl)c[nH]1)N1CCOCC1 | 14.7 µg/mL (≈ 45.2 µM) |  | 
O=C(NC1CCCCCC1)c1cc(-c2ccc(Cl)cc2Cl)c[nH]1 | 1.9 µg/mL (≈ 5.41 µM) |  | 
